Measured values published in PMC11864979, “First-in-class ultralong-target-residence-time p38α inhibitors as a mitosis-targeted therapy for colorectal cancer” (Nature Cancer, 2025).
Several values for one entry are separate records, joined by “and”; a condition that tells them apart may be missing. Equal values may be shown once. Read-outs that look alike come from different tables or passages of the source.

Columns and labels:
HT-29 = assay: cell viability in human CRC cell line HT-29; format: cell-based; conditions: Homo sapiens; for viability at 0.0137 µM: HT-29, 0.0137 µM; for viability at 0.0137 µM / viability at 0.0412 µM / viability at 0.1235 µM / viability at 0.3704 µM / viability at 1.1111 µM / viability at 3.3333 µM / viability at 10 µM: ED Fig. 9h, replicates, read-out: HT-29 Cell viability (%); for viability at 0.0412 µM: HT-29, 0.0412 µM; for viability at 0.1235 µM: HT-29, 0.1235 µM; for viability at 0.3704 µM: HT-29, 0.3704 µM; for viability at 1.1111 µM: HT-29, 1.1111 µM; for viability at 3.3333 µM: HT-29, 3.3333 µM; for viability at 10 µM: HT-29, 10.0000 µM
Protocol: (§1) To generate KAP^2D cells, KAP organoids were isolated from Matrigel, fragmented by mechanical dissociation and plated without any extracellular matrix on common cell culture dishes. Phoenix-Eco packaging cells (CRL-3214), HCT-15 (CCL-225), HCT 116 (CCL-247), COLO 205 (CCL-222), LS 174T (CL-188), RKO (CRL-2577) and HT-29 (HTB-38) were obtained from the American Type Culture Collection. The cells were cultured at 37 °C and 7% CO2 with RPMI (KAP^2D cells) or DMEM (other cell lines), supplemented with 10% FBS and penicillin–streptomycin. KAP^2D cells were authenticated using PCR (Kras locus and Trp53 locus). Phoenix-Eco packaging cells and HCT-15, HCT 116, COLO 205, LS 174T, RKO and HT-29 cells were authenticated by the provider using short tandem repeat profiling. No commonly misidentified cell lines were used. Mycoplasma contamination was excluded by a PCR-based analysis.
(§2) For in vitro treatment studies, organoids were mechanically dissociated and digested using TrypLE supplemented with 100 µg ml^−1 DNaseI and 10.5 µM Y-27632 dihydrochloride (Invitrogen) at 37 °C. A total of 1,000–2,000 single cells were plated per well in white 96-well plates (Greiner) in culture medium containing 10% GFR Matrigel or Cultrex BME. The treatment with doxycycline (5 µg ml^−1), pharmacological inhibitors or corresponding volumes of DMSO was started 24 h after plating. Doxycycline was obtained from Sigma-Aldrich. […] Cell viability was measured by means of CellTiter-Glo 3D or CellTiter-Glo 2.0 reagent (Promega) according to the manufacturers’ instructions and the Infinite M Plex reader (Tecan, i-control version 3.9.1 software). Results were normalized to vehicle (DMSO) or to shNC. For cell-doubling assays, the cell number was quantified at the corresponding time points using Guava EasyCyte flow cytometer (Luminex, CytoSoft v5.2 software).

PDO6 = assay: cell viability in patient-derived CRC organoids PDO6; format: cell-based, human
Protocol: as §2

PDO7 = assay: cell viability in patient-derived CRC organoids PDO7; format: cell-based, human; conditions: PDO7, 1 µM, 4 days
Protocol: as §2

HCT 116 = assay: cell viability in human CRC cell line HCT 116; format: cell-based
Protocol: as §1, §2

PDO15 = assay: cell viability in patient-derived CRC organoids PDO15; format: cell-based, human
Protocol: as §2

KAP^2D cells = assay: P-H3^S10 / α-tubulin staining, mitotic phases in KAP^2D cells; format: cell-based, mouse; conditions: replicates, experiment and repetition
Protocol: Immunofluorescence staining on cells and organoids was performed on glass coverslips or tissue culture chambers (Sarstedt). Organoids were plated in medium containing 10% Matrigel or Cultrex BME. The cultures were fixed with 4% paraformaldehyde and stained with specific antibodies and DAPI (Vector Labs). All used antibodies and dilutions are listed in the Nature Portfolio Reporting Summary. For analyzing DNA synthesis, the Molecular Probes Click-iT EdU Alexa Fluor 555 kit was used 24 h after EdU incorporation with DAPI counterstaining. SA-β-Gal staining of cells was performed in cell culture dishes (cells) or tissue culture chambers (organoids) after fixation with 0.5% glutaraldehyde as described above. Human cultures were incubated with X-Gal solution at pH 6.0 for ~4 h. […] Positive cells were quantified using ImageJ version 1.53a software. The analysis of mitosis was performed with an LSM800 Airyscan (Zeiss) microscope (ZEN version 3.0 software). An Airyscan autofilter processing was applied before image analysis.

KAP liver metastasis = assay: survival of wild-type mice with KAP liver metastasis; format: in vivo, mouse
Protocol: Subcutaneous injection, splenic seeding or cecum injection of organoids was performed in 8–10-week-old C57BL/6 N/Crl, Rag2^−/− (B6.Cg-Rag2^tm1.1Cgn/J), or CB17 Scid beige (CB17.Cg-Prkdc^scidLyst^bg-J/Crl) mice, obtained from Charles River. The organoids were dissociated into single cells, washed with PBS and injected in a 1:1 mixture of PBS and Matrigel. For murine organoids, 1 × 10^5 cells were injected into the left and right flanks or the spleen capsule and 2 × 10^6 cells were injected into the cecum wall. For human organoids, 4 × 10^5 cells were injected into the flanks of CB17 Scid beige mice. For splenic seeding and cecum injection, mice were anaesthetized using ketamine (100 mg kg^−1, intraperitoneally) and xylazin (10 mg/kg, intraperitoneally) in NaCl and a small laparotomy below the thorax was performed.
No mice were excluded during treatment studies.

CNC(=O)c1ccc2c(c1)C(=O)c1ccc(Nc3ccc(F)c(NC(=O)C4CC4)c3)cc1CC2 [Compound 2015]
IC50 (HT-29; 96 h, HT-29, 4 d of treatment): 178 nM | viability at 0.0137 µM (HT-29; Repetition): 99.5% | viability at 0.0137 µM (HT-29; first experiment): 93.3% | viability at 0.0412 µM (HT-29; Repetition): 82.5% | viability at 0.0412 µM (HT-29; first experiment): 89.4% | viability at 0.1235 µM (HT-29; Repetition): 73% | viability at 0.1235 µM (HT-29; first experiment): 79.7% | viability at 0.3704 µM (HT-29; Repetition): 33.4% | viability at 0.3704 µM (HT-29; first experiment): 12.1% | viability at 1.1111 µM (HT-29; Repetition): 7.21% | viability at 1.1111 µM (HT-29; first experiment): 7.57% | viability at 3.3333 µM (HT-29; Repetition): 6.86% | viability at 3.3333 µM (HT-29; first experiment): 10.2% | viability at 10 µM (HT-29; Repetition): 6.64% | viability at 10 µM (HT-29; first experiment): 9.63% | viability at 0.5 µM (PDO6; Homo sapiens, 96 h, PDO6, 0.5 µM, 4 d): 20.6% | Cell viability (%) (PDO6; PDO6, 0.5 µM, 4 d, 0.5 µM): 31.27% and 20.78% | Cell viability (%) (PDO6; PDO6, 1 µM, 4 days, 1 µM): 11.74% and 11.40% and 5.21% | viability at 1 µM (PDO7; Homo sapiens, 96 h, read-out: Cell viability (%)): 5.06% | Cell viability (%) (PDO7; 1 µM): 7.93% and 9.20% | HCT 116 Cell viability (%) (HCT 116; 0.0137 µM, 4 d): 85.88% and 79.68% and 90.88% and 87.20% | HCT 116 Cell viability (%) (HCT 116; 0.0412 µM, 4 d): 87.17% and 85.37% and 79.18% and 81.34% and 80.02% | HCT 116 Cell viability (%) (HCT 116; 0.1235 µM, 4 d): 87.59% and 86.63% and 89.97% and 77.29% and 78.27% | HCT 116 Cell viability (%) (HCT 116; 0.3704 µM, 4 d): 48.15% and 38.21% and 37.69% and 25.63% and 24.67% and 24.34% | HCT 116 Cell viability (%) (HCT 116; 1.1111 µM, 4 d): 30.94% and 32.21% and 17.75% and 19.27% and 17.57% | IC50 (HCT 116; Homo sapiens, 96 h, HCT 116, 4 d of treatment): 223 nM | viability at 0.0137 µM (HCT 116; Homo sapiens, HCT-116, 96 h, 0.0137 µM, 4 d, read-out: HCT 116 Cell viability (%)): 90.6% | viability at 0.0412 µM (HCT 116; Homo sapiens, HCT-116, 96 h, 0.0412 µM, 4 d, read-out: HCT 116 Cell viability (%)): 90.7% | viability at 0.1235 µM (HCT 116; Homo sapiens, HCT-116, 96 h, 0.1235 µM, 4 d, read-out: HCT 116 Cell viability (%)): 90.7% | viability at 1.1111 µM (HCT 116; Homo sapiens, HCT-116, 96 h, 1.1111 µM, 4 d): 28.5% | viability at 0.5 µM (PDO15; Homo sapiens, 96 h, PDO15, 0.5 µM, 4 d, read-out: Cell viability (%)): 77.8% | viability at 1 µM (PDO15; Homo sapiens, 96 h, PDO15, 1 µM, 4 days, read-out: Cell viability (%)): 42.9% | Cell viability (%) (PDO15; PDO15, 0.5 µM, 4 d, 0.5 µM): 81.70% and 63.83% | Cell viability (%) (PDO15; PDO15, 1 µM, 4 days, 1 µM): 57.05% and 51.26% | Anaphase, % (of fully P-H3S10+ cells) (KAP^2D cells; Fig. 4f): 0.00% | Metaphase, % (of fully P-H3S10+ cells) (KAP^2D cells; Fig. 4f): 0.00% | Multipolar mitosis, % (of fully P-H3S10+ cells) (KAP^2D cells; Fig. 4f): 75.00% and 72.55% and 66.43% and 67.83% and 80.50% and 84.38% | Telophase, % (of fully P-H3S10+ cells) (KAP^2D cells; Fig. 4f): 1.72% and 0.65% and 0.70% and 0.00% and 1.89% and 0.78% | P-H3S10+ cells, fully positive (KAP^2D cells; Fig. 4d): 12.93% and 17.02% and 15.43% and 13.33% and 14.34% and 14.40% | P-H3S10+ cells, partially positive (KAP^2D cells; Fig. 4d): 12.04% and 13.24% and 14.13% and 9.97% and 10.28% and 12.15% | survival / therapeutic efficacy in KAP liver metastasis (in words) (KAP liver metastasis; 20 mg kg^−1 daily, start 5 weeks after organoid inoculation): significantly increased the overall survival | Survival (KAP liver metastasis; single animals, 1 = event, 0 = censored, Fig. 6e): 41 d of treatment and 44 d of treatment and 45 d of treatment and 47 d of treatment and ≥ 50 d of treatment and 34 d of treatment
